In ChEMBL document CHEMBL2396621, “Design, synthesis and biological evaluation of 2-mercapto-3-phenethylquinazoline bearing anilide fragments as potential antitumor agents: molecular docking study” (2013):

How the values were obtained:
Format in all cases: functional
[1] = test system: ACHN; test: Cytotoxicity against human ACHN cells assessed as growth inhibition at 10 uM after 48 hrs by coulter counter analysis; conditions: read-out: GI
[2] = test system: NCI-H226; test: Cytotoxicity against human NCI-H226 cells assessed as growth inhibition at 10 uM after 48 hrs by coulter counter analysis; conditions: NCI-H226, 48 h, read-out: GI
[3] = test system: CAKI-1; test: Cytotoxicity against human Caki1 cells assessed as growth inhibition at 10 uM after 48 hrs by coulter counter analysis; conditions: CAKI-1, 48 h, read-out: GI
[4] = test system: SF-295; test: Cytotoxicity against human SF295 cells assessed as growth inhibition at 10 uM after 48 hrs by coulter counter analysis; conditions: SF-295, 48 h, read-out: GI
[5] = test system: DU-145; test: Cytotoxicity against human DU145 cells assessed as growth inhibition at 10 uM after 48 hrs by coulter counter analysis; conditions: DU-145, 48 h, read-out: GI
[6] = test system: MCF7; test: Cytotoxicity against human MCF7 cells assessed as growth inhibition at 10 uM after 48 hrs by coulter counter analysis; conditions: MCF7, 48 h, read-out: GI
[7] = test system: NCI-H522; test: Cytotoxicity against human NCI-H522 cells assessed as growth inhibition at 10 uM after 48 hrs by coulter counter analysis; conditions: NCI-H522, 48 h, read-out: GI
[8] = test system: SK-MEL-28; test: Cytotoxicity against human SK-MEL-28 cells assessed as growth inhibition at 10 uM after 48 hrs by coulter counter analysis; conditions: SK-MEL-28, 48 h, read-out: GI
[9] = test system: SK-MEL-5; test: Cytotoxicity against human SK-MEL-5 cells assessed as growth inhibition at 10 uM after 48 hrs by coulter counter analysis; conditions: SK-MEL-5, 48 h, read-out: GI
[10] = test system: MDA-MB-231; test: Cytotoxicity against human MDA-MB-231 cells assessed as growth inhibition at 10 uM after 48 hrs by coulter counter analysis; conditions: MDA-MB-231, 48 h, read-out: GI
[11] = test system: MDA-MB-468; test: Cytotoxicity against human MDA-MB-468 cells assessed as growth inhibition at 10 uM after 48 hrs by coulter counter analysis; conditions: MDA-MB-468, 48 h, read-out: GI
[12] = test system: SN12C; test: Cytotoxicity against human SN12C cells assessed as growth inhibition at 10 uM after 48 hrs by coulter counter analysis; conditions: read-out: GI
[13] = test system: UACC-257; test: Cytotoxicity against human UACC257 cells assessed as growth inhibition at 10 uM after 48 hrs by coulter counter analysis; conditions: UACC-257, 48 h, read-out: GI
[14] = test system: M14; test: Cytotoxicity against human M14 cells assessed as growth inhibition at 10 uM after 48 hrs by coulter counter analysis; conditions: M14, 48 h, read-out: GI

| SMILES | inhibition of growth at 10 µM [1] | inhibition of growth at 10 µM [2] | inhibition of growth at 10 µM [3] | inhibition of growth at 10 µM [4] | inhibition of growth at 10 µM [5] | inhibition of growth at 10 µM [6] | inhibition of growth at 10 µM [7] | inhibition of growth at 10 µM [8] | inhibition of growth at 10 µM [9] | inhibition of growth at 10 µM [10] | inhibition of growth at 10 µM [11] | inhibition of growth at 10 µM [12] | inhibition of growth at 10 µM [13] | inhibition of growth at 10 µM [14] |
| --- | --- | --- | --- | --- | --- | --- | --- | --- | --- | --- | --- | --- | --- | --- |
| CC(=O)c1ccc(NC(=O)CSc2nc3ccccc3c(=O)n2CCc2ccccc2)cc1 | 30% | 16% | 16% | 21% | 11% | 16% | 51% | 23% | 25% | 39% | 14% | 13% | 36% | 21% |
| O=C(CSc1nc2ccccc2c(=O)n1CCc1ccccc1)Nc1cc(Cl)ccc1C(=O)O | < 10% | < 10% | 17% | < 10% | < 10% | < 10% | < 10% | < 10% | < 10% | < 10% | < 10% | < 10% | < 10% | < 10% |
| O=C(CSc1nc2ccccc2c(=O)n1CCc1ccccc1)Nc1ccc(Cl)cc1 | 22% | 24% | 42% | 32% | 12% | 30% | 45% | 10% | 22% | 37% | 36% | 13% | 18% | < 10% |
| COc1cc(OC(=O)CSc2nc3ccccc3c(=O)n2CCc2ccccc2)cc(OC)c1OC | 10% | 16% | 28% | 13% | < 10% | 34% | < 10% | < 10% | < 10% | 20% | < 10% | 10% | < 10% | < 10% |
| O=C(CSc1nc2ccccc2c(=O)n1CCc1ccccc1)Nc1ccccc1C(=O)O | 34% | 26% | < 10% | 18% | 30% | 21% | 85% | 17% | 35% | 45% | 14% | < 10% | 35% | 12% |
| O=C(CSc1nc2ccccc2c(=O)n1CCc1ccccc1)NCc1ccccc1 | 38% | 13% | 32% | 27% | 13% | 21% | 28% | 12% | 22% | 37% | < 10% | 20% | < 10% | 14% |
| COc1ccc(NC(=O)CSc2nc3ccccc3c(=O)n2CCc2ccccc2)cc1 | < 10% | < 10% | 13% | 21% | < 10% | 11% | < 10% | 11% | 10% | 39% | 13% | < 10% | 14% | 25% |
